From paper PMC3742363 (Chemistry & biology, 2013)
Changes are numbered by the printed parent chain.

Experiments:
p38α T106Q [1] = target: T1, p38α T106Q (Mus musculus, UniProt P47811, T106Q); experiment: Kinase activity assay; format: biochemical
p38α wt [2] = target: T2, p38α wt (Mus musculus, UniProt P47811); experiment: Kinase activity assay; format: biochemical
Jnk3 wt = Jnk3 wt (Homo sapiens, UniProt P53779); experiment: Kinetics: activity assay at varied ATP concentrations; format: biochemical; settings: read-out: Km(ATP); activated Jnk3 wt
Jnk3 wt, sequence (P53779 whole entry): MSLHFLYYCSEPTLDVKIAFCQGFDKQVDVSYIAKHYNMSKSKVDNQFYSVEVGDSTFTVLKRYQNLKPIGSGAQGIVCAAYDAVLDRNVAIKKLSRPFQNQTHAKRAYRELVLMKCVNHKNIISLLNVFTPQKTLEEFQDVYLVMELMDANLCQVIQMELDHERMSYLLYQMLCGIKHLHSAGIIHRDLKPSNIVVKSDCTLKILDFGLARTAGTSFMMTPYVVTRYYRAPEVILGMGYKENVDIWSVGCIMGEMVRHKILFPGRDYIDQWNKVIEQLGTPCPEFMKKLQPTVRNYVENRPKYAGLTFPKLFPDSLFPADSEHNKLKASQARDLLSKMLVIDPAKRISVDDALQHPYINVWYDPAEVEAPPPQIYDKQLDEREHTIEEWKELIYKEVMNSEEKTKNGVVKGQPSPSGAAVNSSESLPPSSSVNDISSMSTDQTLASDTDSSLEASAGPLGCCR

p38δ wt = target: T3, p38δ wt (Mus musculus, UniProt Q9Z1B7); experiment: as above; format: biochemical; settings: read-out: Km(ATP); activated p38δ wt
T3 sequence (Q9Z1B7 1-366): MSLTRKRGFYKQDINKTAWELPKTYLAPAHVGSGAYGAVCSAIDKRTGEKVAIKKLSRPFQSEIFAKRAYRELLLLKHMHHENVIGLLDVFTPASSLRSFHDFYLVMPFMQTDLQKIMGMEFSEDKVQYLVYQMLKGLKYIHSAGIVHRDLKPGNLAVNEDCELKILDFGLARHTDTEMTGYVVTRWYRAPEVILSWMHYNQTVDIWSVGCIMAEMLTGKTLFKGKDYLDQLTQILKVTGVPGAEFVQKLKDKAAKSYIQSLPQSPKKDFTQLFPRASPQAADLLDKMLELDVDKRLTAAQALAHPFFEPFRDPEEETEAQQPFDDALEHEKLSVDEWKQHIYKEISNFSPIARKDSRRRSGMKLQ

Erk2 Q103T = Erk2 Q103T (Rattus norvegicus, UniProt P63086, Q103T); settings: read-out: Km(ATP); activated Erk2 Q103T
p38α T106Q [3] = target: T1, p38α T106Q; experiment: Kinetics: activity assay at varied ATP concentrations; format: biochemical; settings: read-out: Km(ATP); activated p38α T106Q; rate of reaction maintained linearity as high as 1000 μM ATP
p38δ M107T = target: T4, p38δ M107T (Mus musculus, UniProt Q9Z1B7, M107T); experiment: as above; format: biochemical; settings: read-out: Km(ATP); activated p38δ M107T
T4 sequence (Q9Z1B7 1-366 M107T): T3 sequence (Q9Z1B7 1-366) with M107T

p38α wt [4] = target: T2, p38α wt; experiment: as above; format: biochemical; settings: read-out: Km(ATP); activated p38α wt
Erk2 Q103A/C164L = Erk2 Q103A/C164L (Rattus norvegicus, UniProt P63086, C164L/Q103A); settings: read-out: Km(ATP); activated Erk2 Q103A/C164L
Erk2 wt = Erk2 wt (Rattus norvegicus, UniProt P63086); settings: read-out: Km(ATP); activated Erk2 wt
Erk2 Q103T/C164L = Erk2 Q103T/C164L (Rattus norvegicus, UniProt P63086, C164L/Q103T); settings: read-out: Km(ATP); activated Erk2 Q103T/C164L
Jnk3 M146I = Jnk3 M146I (Homo sapiens, UniProt P53779, M146I); experiment: Kinetics: activity assay at varied ATP concentrations; format: biochemical; settings: read-out: Km(ATP); activated Jnk3 M146I
Jnk3 M146I, sequence (P53779 whole entry M146I): as the sequence (P53779 whole entry) above, with M146I counted along it

T2 sequence (P47811 whole entry): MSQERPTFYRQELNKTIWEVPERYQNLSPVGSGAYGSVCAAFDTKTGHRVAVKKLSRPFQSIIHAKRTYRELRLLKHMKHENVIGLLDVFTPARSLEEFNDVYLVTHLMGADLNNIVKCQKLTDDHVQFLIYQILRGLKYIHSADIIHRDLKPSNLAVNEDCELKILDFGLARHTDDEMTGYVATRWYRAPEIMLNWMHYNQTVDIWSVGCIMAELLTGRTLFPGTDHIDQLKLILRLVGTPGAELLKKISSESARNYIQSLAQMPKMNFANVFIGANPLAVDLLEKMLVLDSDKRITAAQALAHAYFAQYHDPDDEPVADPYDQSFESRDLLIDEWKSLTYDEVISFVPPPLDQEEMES
T1 sequence (P47811 whole entry T106Q): as the sequence (P47811 whole entry) above, with T106Q counted along it

| Ki (p38α T106Q [1]) | Ki (p38α wt [2]) | Km (Jnk3 wt) | Km (p38δ wt) | Km (Erk2 Q103T) | Km (p38α T106Q [3]) | Km (p38δ M107T) | Km (p38α wt [4]) | Km (Erk2 Q103A/C164L) | Km (Erk2 wt) | Km (Erk2 Q103T/C164L) | Km (Jnk3 M146I) | SMILES |
| --- | --- | --- | --- | --- | --- | --- | --- | --- | --- | --- | --- | --- |
| 3700 ± 400 nM | 8.1 ± 0.2 nM | – | – | – | – | – | – | – | – | – | – | Cc1ccc(C(=O)Nc2ccc(CN3CCN(C)CC3)c(C(F)(F)F)c2)cc1C#Cc1cnc2cccnn12 [L1, Iclusig] |
| – | – | 8.3 ± 0.6 µM | 91 ± 6 µM | 83 ± 5 µM | > 1000 µM | 380 ± 40 µM | 229 ± 16 µM | 137 ± 6 µM | 120 ± 10 µM | 180 ± 20 µM | 66 ± 3 µM | Nc1ncnc2c1ncn2[C@@H]1O[C@H](COP(=O)(O)OP(=O)(O)OP(=O)(O)O)[C@@H](O)[C@H]1O [ATP] |
